Like-named read-outs stand apart in the source and are kept apart here.
Key:
[1] = target: Hex A (Homo sapiens, UniProt P06865+P07686); assay: Hex A inhibition (IC50 from dose response curves of Hex A residual activity); conditions: for pKHA: pH dependence of Hex A inhibition;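 for all read-outs here: remaining Hex A enzyme activity recorded across rising inhibitor doses, with dose response curves run at pH 6.5 and again at pH 4.5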
Procedure: The NINDS library was screened for compounds having Hex A inhibitory activity.
Experiments were performed using 1.6 mM 4-methylumbelliferone-b-N-Acetylglucosamine substrate.

[2] = test system: patient fibroblasts; assay: Cell viability by Alamar Blue; format: cell-based, human; conditions: concentrations greater than 100 μM, five days of treatment
[3] = target: mutant Hex A (Homo sapiens, UniProt P06865+P07686); format: cell-based; conditions: for Max Increase: maximum increase in Hex A activity relative to untreated cells (=1); for Range of Increase: range of increase in Hex A activity; for EC50: Hex A rescue, determined from graphs of FIGS. 5-7
Procedure: Using the graphs of FIGS. 5-7, the EC50 values for Hex A rescue were determined as well as the maximum increase and range of increase in Hex A activity. These values are tabulated in Table 2, together with the IC50 values for Hex A inhibition that were determined in Example 3.

[4] = test system: mutant Hex A; format: cell-based, human
Procedure: The cells were harvested and assayed for Hex A using a fluorescent artificial substrate, MUGS. The increase in Hex A activity relative to that of untreated cells is given, i.e. no change in activity=1;
Cells were grown in the indicated concentrations of either drug for five days. The cells were harvested and assayed for Hex A activity using a fluorescent artificial substrate, MUGS. The increase in Hex A activity relative to that of untreated cells is given, i.e. no change in activity=1.
Two of the other cultures were un-genotyped infantile Tay-Sachs disease fibroblast cell lines. […] The increase in Hex A activity relative to that of untreated cells is given, i.e., no change in activity=1. The decrease in Hex A activity at high concentrations represents cell toxicity.

[5] = IC50 (μM ± Err), Hex A inhibition, values determined in Example 3, pH not given
[6] = IC50 (μM), without error, pH not stated
[7] = IC50 (μM ± Err), in brackets, brackets: IC50 extrapolated from an incomplete dose response curve
[8] = IC50 (μM), compounds with bracketed IC50, extrapolated from an incomplete dose response curve
[9] = read-out: IC50 (μM ± Err), Hex A inhibition, values determined in Example 3, pH not given

Hex A, sequence (P06865 89-529): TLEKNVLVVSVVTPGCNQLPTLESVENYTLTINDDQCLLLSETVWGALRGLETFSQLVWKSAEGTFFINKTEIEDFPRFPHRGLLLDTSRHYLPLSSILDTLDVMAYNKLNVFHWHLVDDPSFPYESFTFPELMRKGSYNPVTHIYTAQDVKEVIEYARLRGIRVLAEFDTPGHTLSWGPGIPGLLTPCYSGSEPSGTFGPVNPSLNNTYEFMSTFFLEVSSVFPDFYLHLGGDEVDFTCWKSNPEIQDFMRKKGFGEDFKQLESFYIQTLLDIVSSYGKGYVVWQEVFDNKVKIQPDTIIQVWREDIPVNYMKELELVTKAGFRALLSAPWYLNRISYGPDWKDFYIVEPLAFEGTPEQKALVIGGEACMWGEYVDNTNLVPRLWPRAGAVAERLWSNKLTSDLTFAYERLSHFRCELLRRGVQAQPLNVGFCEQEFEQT
Hex A, sequence (P07686 122-311 limits assumed): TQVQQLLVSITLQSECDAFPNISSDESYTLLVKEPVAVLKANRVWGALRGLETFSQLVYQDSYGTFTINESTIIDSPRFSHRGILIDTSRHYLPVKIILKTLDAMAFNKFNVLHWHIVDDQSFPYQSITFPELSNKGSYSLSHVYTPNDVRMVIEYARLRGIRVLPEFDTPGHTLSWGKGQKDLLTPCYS
Hex A, sequence (P07686 315-556 limits assumed): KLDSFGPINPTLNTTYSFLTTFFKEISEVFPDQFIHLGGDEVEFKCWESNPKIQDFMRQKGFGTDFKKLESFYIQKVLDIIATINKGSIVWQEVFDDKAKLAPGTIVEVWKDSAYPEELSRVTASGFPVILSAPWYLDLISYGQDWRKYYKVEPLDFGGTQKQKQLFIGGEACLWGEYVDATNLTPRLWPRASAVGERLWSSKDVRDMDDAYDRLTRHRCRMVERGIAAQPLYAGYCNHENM

Row | SMILES | Max Increase [3] | Range of Increase [3] | EC50 [3] [µM] | IC50 [1, 5] [µM] | IC50 [1, 6] [µM] | IC50 [1, 7] [µM] | further results
1 | CC1=N[C@@H]2[C@@H](O)[C@H](O)[C@@H](CO)O[C@@H]2S1 [NGT, NAG-thiazoline, reference compound] |  |  |  |  |  |  | pKHA [1]: 4.5
2 | CCc1nc(N)nc(N)c1-c1ccc(Cl)cc1 [PYR, Pyrimethamine, reference compound] | 2.0 | 4 |  |  |  |  | reduction of viability compared to PYRdCl treated patient fibroblasts [2]: more than 20%; Max Increase ([3]; listed as PYR (vsa7)): 1.4; pKHA [1]: 6.5; cell toxicity ([4]; 33.33 μg/ml, five days): cell death was occurring; rescue of mutant Hex A activity compared with NGT ([4]; fibroblasts expressing αG269S, four days (FIG. 1)): better able to rescue mutant Hex A activity
3 | CCc1nc(N)nc(N)c1-c1ccc(C(F)(F)F)cc1 [jts16] | 1.3 | 4 | 5.14 | 18 ± 1 | 17.7 |  | 
4 | CC(C)c1nc(N)nc(N)c1-c1ccc(Cl)cc1 [jts20] |  |  |  | 406 ± 2 | 406 |  | 
5 | Cc1nc(N)nc(N)c1-c1ccc(Cl)cc1 [jts22] |  |  |  | 556 ± 1 | 556 |  | 
6 | Cc1nc(N)nc(N)c1-c1ccccc1 [ksh3-05] |  |  |  |  |  | 1230 | IC50 [1, 8]: 1230 µM
7 | Cc1nc(N)nc(N)c1-c1ccc(F)cc1 [ksh3-14a] |  |  |  |  |  | 923 | IC50 [1, 8]: 923 µM
8 | Cc1ccc(-c2c(C)nc(N)nc2N)cc1 [ksh3-14b] |  |  |  |  |  | 1720 | IC50 [1, 8]: 1720 µM
9 | Cc1ccc(-c2c(C)nc(N)nc2N)cc1 [ksh3-14c] |  |  |  |  |  | 3830 | IC50 [1, 8]: 3830 µM
10 | Cc1cccc(-c2c(C)nc(N)nc2N)c1 [ksh3-14d] |  |  |  |  |  | 10400 | 
11 | Cc1cc(C)cc(-c2c(C)nc(N)nc2N)c1 [ksh3-14e] |  |  |  |  |  | 1230 | IC50 [1, 8]: 1230 µM
12 | CCc1nc(N)nc(N)c1-c1ccc(F)cc1 [ksh3-17] | 1.8 | 4 | 8.24 | 50 ± 1 | 50.4 |  | 
13 | CCc1nc(N)nc(N)c1-c1ccc(C)cc1 [ksh3-19b] | 1.5 | 4 | 4.44 | 72 ± 2 | 72.3 |  | 
14 | CCc1nc(N)nc(N)c1-c1ccccc1C [ksh3-19c] | 1.9 | 4 | 4.95 | 44 ± 1 | 43.7 |  | 
15 | CCc1nc(N)nc(N)c1-c1cccc(C)c1 [ksh3-19d] | 2.1 | 5 | 6.67 |  | 34.5 |  | IC50 [1, 9]: 34 ± 1 µM
16 | CCc1nc(N)nc(N)c1-c1cc(C)cc(C)c1 [ksh3-19e] | 2.2 | 3 | 16.4 |  |  |  | IC50 [1, 9]: 47 ± 1 µM; IC50 ([1]; without error, pH not stated): 47.4 µM
17 | CCCc1nc(N)nc(N)c1-c1ccccc1 [ksh3-29] | 1.6 | 3 | 12.1 | 37 ± 1 | 36.6 |  | 
18 | CCCc1nc(N)nc(N)c1-c1ccc(F)cc1 [ksh3-33a] | 1.4 | 4 | 12.5 | 39 ± 1 | 39.1 |  | 
19 | CCCc1nc(N)nc(N)c1-c1ccccc1C [ksh3-33c] |  |  |  |  |  | 825 | 

Row | SMILES | Max Increase [3] | Range of Increase [3] | EC50 [3] [µM] | IC50 [1, 5] [µM] | IC50 [1, 6] [µM] | IC50 [1, 7] [µM] | further results
20 | CCCc1nc(N)nc(N)c1-c1cccc(C)c1 [ksh3.33d] | 1.7 | 3 | 14.8 | 50 ± 1 | 50.4 |  | 
21 | CCCc1nc(N)nc(N)c1-c1cc(C)cc(C)c1 [ksh3.33e] | 1.6 | 1 |  | 24 ± 1 | 24.4 |  | 
22 | CCc1ncncc1-c1ccc(C(F)(F)F)cc1 [vsa4] |  |  |  |  |  | 2110 | 
23 | CCc1nc(N)nc(N)c1-c1ccc(C(F)(F)F)cc1 [vsa5] | 1.4 | 3 | 2.24 |  | 14.7 |  | IC50 [1, 9]: 15 ± 1 µM
24 | CCc1ncnc(N)c1-c1ccc(C(F)(F)F)cc1 [vsa6] |  |  |  |  |  | 936 | IC50 [1, 8]: 936 µM
25 | CCC1=C(c2ccc(Cl)cc2)C(N)=NCN1 [vsa8] |  |  |  |  |  | 967 | IC50 [1, 8]: 967 µM
26 | CCc1[nH]c(=O)nc(N)c1-c1ccc(Cl)cc1 [vsa9] |  |  |  |  |  | 400 | 
27 | CCCCc1nc(N)nc(N)c1-c1ccc(Cl)cc1 [zjm1-91] |  |  |  |  |  | 1360 | IC50 [1, 8]: 1360 µM
28 | CCCCc1nc(N)nc(N)c1-c1ccc(C)cc1 [zjm1-111] |  |  |  |  |  | 600 | IC50 [1, 8]: 600 µM
29 | CCCCc1nc(N)nc(N)c1-c1ccc(OC)cc1 [zjm1-113] |  |  |  |  |  | 870 | IC50 [1, 8]: 870 µM
30 | CCCCc1nc(N)nc(N)c1-c1ccc(C(F)(F)F)cc1 [zjm1-115] |  |  |  | 142 ± 3 | 142 |  | 
31 | CCCc1nc(N)nc(N)c1-c1ccc(Cl)cc1 [zjm1-135] | 1.4 | 3 | 7.14 |  |  |  | IC50 [1, 9]: 18 ± 1 µM; IC50 ([1]; without error, pH not stated): 17.9 µM
32 | CCCc1nc(N)nc(N)c1-c1ccc(C)cc1 [zjm1-137] | 2.0 | 3 | 4.6 | 28 ± 1 | 28.4 |  | 
33 | CCCc1nc(N)nc(N)c1-c1ccc(OC)cc1 [zjm1-139] | 2.3 | 4 | 14.2 | 28 ± 1 | 28.2 |  | 
34 | CCCc1nc(N)nc(N)c1-c1ccc(C(F)(F)F)cc1 [zjm1-141] | 1.5 | 3 | 11.6 | 16 ± 1 | 15.9 |  | 
35 | NCc1nc(N)nc(N)c1-c1ccc(Cl)cc1 [zjm7-27] | 1.4 | 1 |  | 176 ± 1 | 176 |  | 
36 | CCc1nc(N)nc(N)c1-c1cccs1 [zjm7-67] | 1.7 | 2 | 6.46 | 31 ± 1 | 30.8 |  | 
37 | CCc1nc(N)nc(N)c1-c1ccsc1 [zjm7-69] | 1.9 | 4 | 10 | 55 ± 1 | 55 |  | 

— patent US20150272951A1, “COMPOUNDS FOR THE TREATMENT OF LYSOSOMAL STORAGE DISEASES” (The Hospital for Sick Children, priority 2010, published 2015)
